Here are results for seven compounds from the NIST ThermoML archive (doi:10.1021/je049959i).

Numbers after ± are expanded uncertainties.

The conditions of this data set: Liquid, Closed cell (Static) method.

By vapor or sublimation pressure is commonly meant the equilibrium pressure above the liquid or solid. `CC(C)C` [2-methylpropane]: the “vapor or sublimation pressure” value (318.59 K) amounted to 610.84 ± 2.1 kPa.
Turning to `CCCC` [butane], where the note is “330.16 K”, the “vapor or sublimation pressure” value came out at 592.44 ± 2.6 kPa.
`CCCO` [propan-1-ol]: the “vapor or sublimation pressure” value by setting is: (318.58 K) 9.47 ± 0.17 kPa; (323.07 K) 12.07 ± 0.18 kPa; (323.26 K) 12.27 ± 0.18 kPa; (330.16 K) 17.57 ± 0.19 kPa; (331.92 K) 19.07 ± 0.18 kPa; (332.05 K) 19.17 ± 0.18 kPa.
As for `C/C=C\C` [(Z)-2-butene], for the setting “331.92 K”, the “vapor or sublimation pressure” value is given as 561.34 ± 2.1 kPa.
On to `C=CCC` [1-butene], for which, under “323.27 K”, the “vapor or sublimation pressure” value came to 596.14 ± 2.1 kPa.
For `C=C(C)C` [2-methylpropene], for the setting “323.07 K”, the “vapor or sublimation pressure” value is listed as 607.94 ± 2.1 kPa.
On to `C/C=C/C` [(E)-2-butene], for which the “vapor or sublimation pressure” value (332.05 K) came out at 606.54 ± 2.2 kPa.
